Experimental data published in US20160038446A1, “METHOD FOR IMPEDING SKIN INFLAMMATORY RESPONSE TO AN ENERGY INJURY” (priority 2014, published 2016).

Experiments:
[1] = tested on: skin inflammatory response to an energy injury; experiment: Topical application to heat-caused first or second degree burns (FIG. 1, burn cases in general); type: in vivo, human
Text: An energy injury is a sunburn, heat burn, or other radiation energy burn including thermal heat energy burns. […] As noted by the prior art discussed above, L-lactic acid was originally intended to facilitate reversing the signs/appearance of aging in cosmetic surgery patients by loosening and subsequent exfoliation of outer layer dead skin cells using L-Lactic Acid as the active ingredient. L-Lactic Acid is the only stereoisomer configuration of lactic acid that is active in cellular metabolism. In its original application, the L-Lactic Acid formulation very effectively results in increased epidermal cell turnover and stimulation of new collagen deposition in the deeper dermal skin layer of uninjured skin. However, the prior art teaches that acid irritates and burns the skin and teaches that concentrated acid should never be applied to an injury or burn area. […] In this manner, the action of 15% or less L-Lactic Acid with pH of less than 3.0 applied topically to an acute severe second degree burn appears to safely halt and then reverse the dermal inflammatory response cascade of events. Thus, capillary swelling decreases, leaked vascular fluid returns into the capillaries and/or lymph channels, and redness disappears as a result of fewer red blood cells in the area.
The preferred and proven application of the product should occur as soon as possible after the energy injury during the inflammatory response. However, the application is effective at any time during the skin inflammatory response. This initial application, if possible, should be within one hour for ANY first or second degree burn including a deep second degree burn such as a sunburn, touching a 400 degree oven pan. radiation therapy, or laser resurfacing treatment. This topical application has a phenomenal effect on both the visible appearance and experienced physical symptoms of the burn. […] When looking at FIGS. 1 and 2 one may see that this initial application 100 time affects how much of the untreated skin inflammatory response 60 and damage that must be overcome with the faster the application 100, the better the treated effect 150. […] The patient schedule, effectiveness of the application 100, and the increased concentration resulting in an increased patient's skin irritation become an issue with shortening the intervals for reapplication.

[2] = tested on: skin inflammatory response to an energy injury; experiment: Effectiveness of the burn treatment as a function of pH and concentration of the lactic acid
Text: In contrast to the normally low concentrations found in skin, the preferred product formulation is based on 10% weight/weight concentration of L-Lactic Acid, with pH of 2.34 that is compared to normal skin lactate levels that are around <3 mmol/L and skin pH between 6.8-7.0 pH.

## C[C@H](O)C(=O)O [L-Lactic Acid, L-lactic acid]
[1]; FIG. 1, applied within four hours of the initial burn
  skin inflammatory response compared against the untreated norm: immediate and significant impediment to the skin inflammatory response
[1]; FIG. 1 example, applied within four hours of the initial burn
  exfoliation or blister occurrence: no apparent exfoliation or blister occurrence
[1]; any burn cases
  blister formation after treatment: no blister formation has occurred
[1]; applied 1 hour, 2 hours, 4 hours, and 6 hours after the energy injury
  applications at different times after the energy injury: successfully tested
[2]; 2.5 pH, 2.4 pH
  effectiveness for the treatment: increased effectiveness
[2]; 2.8 pH
  effectiveness for the treatment: further increasing effectiveness
[2]; 3.0 pH
  effectiveness for the treatment: increasing effectiveness compared to the 3.5 pH
[2]; 3.5 pH
  effectiveness for the treatment: increasing effectiveness over the 4.0 pH
[2]; 4.0 pH
  effectiveness for the treatment: slightly effective
[2]; above a 4.0 pH
  effectiveness for the treatment: ineffective
[2]; concentrations over 30%
  skin effect of high concentrations: incite exfoliation
